Read-outs that look alike come from different tables or passages of the source.
Legend:
[1] = target: T1, human IRAK4 (Homo sapiens, UniProt Q9NWZ3); assay: In vitro IRAK4 kinase activity, 33P isotope-labeled kinase activity assay (Reaction Biology Corp); assay type: biochemical
T1 construct: purchased Reaction Biology Corp
T1 sequence (Q9NWZ3 1-460): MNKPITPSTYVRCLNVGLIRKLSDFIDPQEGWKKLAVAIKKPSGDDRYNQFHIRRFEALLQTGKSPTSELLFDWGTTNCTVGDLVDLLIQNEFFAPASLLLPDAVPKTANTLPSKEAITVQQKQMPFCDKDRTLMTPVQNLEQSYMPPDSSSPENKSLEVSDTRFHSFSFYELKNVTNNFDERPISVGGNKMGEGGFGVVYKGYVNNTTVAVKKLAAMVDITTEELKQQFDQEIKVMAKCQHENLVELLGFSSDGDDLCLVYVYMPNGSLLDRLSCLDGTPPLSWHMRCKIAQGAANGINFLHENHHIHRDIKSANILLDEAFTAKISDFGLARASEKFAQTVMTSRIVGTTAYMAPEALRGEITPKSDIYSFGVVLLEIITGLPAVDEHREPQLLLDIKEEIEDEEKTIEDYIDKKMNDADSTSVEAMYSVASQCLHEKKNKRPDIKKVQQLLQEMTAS
Method: The IC50 values were determined using ^33P isotope-labeled kinase activity assay (Reaction Biology Corp) to evaluate the inhibitory ability of the tested compounds on human IRAK4.
(§1) Buffer conditions: 20 mM Hepes (pH 7.5), 10 mM MgCl2, 1 mM EGTA, 0.02% Brij35, 0.02 mg/mL BSA, 0.1 mM Na3VO4, 2 mM DTT, 1% DMSO.
Test procedure: At room temperature, the tested compound was dissolved in DMSO to prepare a 10 mM solution for later use. The substrate was dissolved in a newly prepared buffer solution, and the tested IRAK4 kinase was added thereto and mixed evenly. The DMSO solution dissolved with the tested compound was added to the above reaction mixture mixed evenly using acoustic technique (Echo 550). After incubation for 15 minutes, ^33P-ATP was added to initiate the reaction.

[2] = test system: TNF-α production in THP-1 cells; assay: THP-1 cytological TNFa ELISA assay (LPS-stimulated); assay type: cell-based; settings: Homo sapiens, TNF-α in culture supernatant, 150 ng/mL LPS, 18 hours
Method: THP-1 human acute […] leukemia cells were purchased from ATCC (Cat #TIB-202) and cultured at 37° C. in 5% CO2 incubator. The composition of medium was RPMI1640 (Gibco, Cat #22400-105), and the supplementary compositions were 10% FBS (Gibco, Cat #10091148); 1% PenStrep (Gibco, Cat #15140); 0.05 mM 2-Mercaptoethanol (Sigma, Cat #M6250).
TNF-α Elisa kit was used to detect the content of TNF-α in cell culture supernatant samples. TNF-α was produced by stimulating THP-1 cells with 150 ng/mL LPS (Sigma, Cat #L6529).
THP-1 cells cultured normally at logarithmic growth stage were seeded in a 96-well plate (Corning #3599) at a certain concentration (1*10^5/100 μL) and then put into a cell incubator for incubation. After two hours, 16.7 μL of different concentrations of the compound to be tested (8*final concentration) were added and incubated in an incubator. After one hour, 16.7 μL of 1200 ng/mL LPS was added and incubated in an incubator. After 18 hours, the culture supernatant samples were collected by centrifugation, and the content of TNF-α could be detected by TNF-α Elisa kit. Finally, OD signals (OD450-OD570) were read on envision board reader.
The OD450-OD570 signal value was converted into a percentage inhibition rate. Inhibition rate %=(ZPE−sample)/(ZPE−HPE)*100.
“HPE” refers to the OD450-OD570 signal value of the control well without LPS stimulated cells, and “ZPE” refers to the OD450-OD570 signal value of the control well with LPS stimulated cells. The IC50 value of the compound was calculated by XLFit in the excel add-in. Y=Bottom+(Top−Bottom)/(1+(IC50/X)^HillSlope). Equation: […]

[3] = target: T2, human BTK (Homo sapiens, UniProt Q06187); assay: In vitro BTK kinase activity, 33P isotope-labeled kinase activity assay (Reaction Biology Corp); assay type: biochemical; settings: 33P-ATP, 2 hours at room temperature
T2 construct: purchased Reaction Biology Corp
Method: The IC50 values were determined using ^33P isotope-labeled kinase activity assay (Reaction Biology Corp) to evaluate the inhibitory ability of the tested compounds on human BTK.
as §1
Test procedure: At room temperature, the tested compound was dissolved in DMSO to prepare a 10 mM solution for later use. The substrate was dissolved in a newly prepared buffer solution, and the tested BTK kinase was added thereto and mixed evenly. The compound dissolved in DMSO was added to the kinase reaction mixture through Echo 550 (Acoustic technology; Nanoliter range). After incubation for 20 minutes at room temperature, ^33P-ATP was added to initiate the reaction. The reaction was carried out at room temperature for 2 hours, and the radioactivity of the reaction liquid point was detected by filtration-binding method with P81 ion exchange filter paper. The kinase activity data were expressed by comparing the kinase activity of the group containing the tested compound with the kinase activity of the blank group (only containing DMSO), and the IC50 value was obtained by curve fitting by Prism4 software (GraphPad), the experimental results are shown in Table 10.

[4] = test system: OCI-LY10 human B-cell lymphoma cells; assay: OCI-LY10 cell proliferation inhibition (CellTiter-Glo); assay type: cell-based; settings: OCI-Ly10, 72 h, treated for 3 days
Method: OCI-LY10 human B-cell lymphoma cells were cultured in a 37° C., 5% CO2 incubator. The composition of medium was IMDM (GIBCO, Cat #12440053); the supplementary compositions were 20% FBS (Hyclone, Cat #SH30084.03); 1% PenStrep (Thermo, Cat #SV30010).
The tumor cell lines OCI-LY10 and TMD8 were used to detect the effect of the compound on inhibiting tumor cell proliferation in vitro. The tumor cell line was cultured in a 37° C., 5% CO2 incubator according to the culture conditions shown, and passaged regularly, then the cells in the logarithmic growth phase were taken, counted, and spread in a 96-well plate (the cells in each well were adjusted to an appropriate concentration, a total of […] per well was added). After incubating overnight in a 37° C., 5% CO2 incubator, drugs with different concentration gradients (10 μL of drug solution was added) were added and treated for 3 days, then 50 μL of CellTiter-Glo working solution was added to each well, and the cell plate was wrapped with aluminum foil to avoid light. The culture plate was shaken on an orbital shaker for 2 minutes to induce cell lysis, and placed at room temperature for 10 minutes to stabilize the luminescence signal, then the luminescence signal was detected on the 2104 EnVision plate reader.
The Inhibition rate (IR) of the tested compound was calculated using the following formula: IR (%)=(1−(RLU compound−RLU blank control)/(RLU solvent control−RLU blank control))*100%.
The inhibition rates of different concentrations of the compounds were calculated in Excel, and then the inhibition curves were made by GraphPad Prism software and the related parameters were calculated, including the minimum inhibition rate, the maximum inhibition rate and IC50.

[5] = 33P-ATP, 120 minutes at room temperature, read-out: IRAK4/IC50

T2 sequence (Q06187 whole entry): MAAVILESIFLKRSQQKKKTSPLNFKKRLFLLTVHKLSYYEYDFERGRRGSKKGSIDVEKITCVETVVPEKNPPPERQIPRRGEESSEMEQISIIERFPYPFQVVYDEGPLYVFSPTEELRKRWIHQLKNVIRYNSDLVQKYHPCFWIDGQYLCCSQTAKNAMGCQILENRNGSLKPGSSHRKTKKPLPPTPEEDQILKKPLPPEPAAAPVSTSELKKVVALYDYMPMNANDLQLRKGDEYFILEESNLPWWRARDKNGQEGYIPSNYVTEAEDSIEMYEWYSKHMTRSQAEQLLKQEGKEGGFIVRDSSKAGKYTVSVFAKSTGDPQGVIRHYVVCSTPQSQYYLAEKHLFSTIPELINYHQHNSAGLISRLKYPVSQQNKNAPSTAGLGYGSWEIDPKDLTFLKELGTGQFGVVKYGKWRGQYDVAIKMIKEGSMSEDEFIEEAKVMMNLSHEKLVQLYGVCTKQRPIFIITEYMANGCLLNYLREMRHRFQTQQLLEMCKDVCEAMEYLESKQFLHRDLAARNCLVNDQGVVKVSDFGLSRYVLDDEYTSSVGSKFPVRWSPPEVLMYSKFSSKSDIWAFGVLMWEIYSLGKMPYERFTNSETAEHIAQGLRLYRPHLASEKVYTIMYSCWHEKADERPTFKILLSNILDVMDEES

Structure (SMILES)	IC50 [1, 5] [nM]	IC50 [3] [nM]	IC50 [4] [nM]	IC50 [1] [nM]	IC50 [2] [nM]
Cc1cc(-c2nc(C(=O)Nc3cn4cc(CCC(C)(C)O)nc4cc3N3CCOCC3)co2)ccn1 [WX002]				1.2	
Cc1cc(-c2nc(C(=O)Nc3cn4cc(CCC(C)(C)O)nc4cc3N3CCNCC3)co2)ccn1 [WX003]				2.2	557
COC(=O)N1CCN(c2cc3nc(CCC(C)(C)O)cn3cc2NC(=O)c2coc(-c3ccnc(C)c3)n2)CC1 [WX004]				1.3	77
CC(=O)N1CCN(c2cc3nc(CCC(C)(C)O)cn3cc2NC(=O)c2coc(-c3ccnc(C)c3)n2)CC1 [WX005]	1.1				256
Cc1cc(-c2nc(C(=O)Nc3cn4cc(CCC(C)(C)O)nc4cc3N3CCC(O)CC3)co2)ccn1 [WX006]		47.5		1.2	107
Cc1cc(-c2nc(C(=O)Nc3cn4cc(CCC(C)(C)O)nc4cc3C3CC3)co2)ccn1 [WX007]	2				240
Cc1cc(-c2nc(C(=O)Nc3cn4cc(CCC(C)(C)O)nc4cc3N3CCC(F)(F)CC3)co2)ccn1 [WX009]		46		0.7	
CC(C)c1cc(-c2nc(C(=O)Nc3cn4cc(CCC(C)(C)O)nc4cc3N3CCCCC3)co2)ccn1 [WX011]		23.6		1.5	140
Cc1cc(-c2nc(C(=O)Nc3cn4cc(CCC(C)(C)O)nc4cc3N3CCC(CN)CC3)co2)ccn1 [WX014]		25.7		0.9	
CC(C)(O)CCc1cn2cc(NC(=O)c3coc(-c4ccnc(C#N)c4)n3)c(N3CCCCC3)cc2n1 [WX015]		6.4		0.4	
Cc1cc(-c2nc(C(=O)Nc3cn4cc(CCC(=O)O)nc4cc3N3CCCCC3)co2)ccn1 [WX018]		47.5		0.9	104
Cc1cc(-c2nc(C(=O)Nc3cn4cc(CCC(=O)O)nc4cc3N3CCC(CO)CC3)co2)ccn1 [WX020]		8.5		0.5	
Cc1cc(-c2nc(C(=O)Nc3cn4cc(CCC(C)(C)O)nc4cc3C3CCCCC3)co2)ccn1 [WX022]		43.1		0.7	
Cc1cc(-c2nc(C(=O)Nc3cn4cc(CCC(C)(C)O)nc4cc3-c3ccccc3F)co2)ccn1 [WX024]		30.5	208	0.7	13
Cc1cc(-c2nc(C(=O)Nc3cn4cc(CCC(C)(C)O)nc4cc3-c3cccc(F)c3)co2)ccn1 [WX025]		21.8	94	0.7	21

Second part, led by results:

IC50 [1, 5] [nM]	IC50 [3] [nM]	IC50 [4] [nM]	Structure (SMILES)	IC50 [1] [nM]	IC50 [2] [nM]
2.1	4.6		Cc1cc(-c2nc(C(=O)Nc3cn4cc(CCC(C)(C)O)nc4cc3N3CCC(C)(C)CC3)co2)ccn1 [WX008]		
2.4			CC(C)(O)CCc1cn2cc(NC(=O)c3coc(-c4ccnc(C(F)(F)F)c4)n3)c(N3CCCCC3)cc2n1 [WX010]		332
1	6.9		CC(C)(O)CCc1cn2cc(NC(=O)c3coc(-c4ccnc(C5CC5)c4)n3)c(N3CCCCC3)cc2n1 [WX012]		
0.2	1.4		Cc1cc(-c2nc(C(=O)Nc3cn4cc(CCC(C)(C)O)nc4cc3N3CCC(CO)CC3)co2)ccn1 [WX013]		
1.6			Cc1cc(-c2nc(C(=O)Nc3cn4cc(CCC(=O)O)nc4cc3N3CCC(F)(F)CC3)co2)ccn1 [WX017]		321
8.4			Cc1cc(-c2nc(C(=O)Nc3cn4cc(CCC(=O)O)nc4cc3-c3cccnc3)co2)ccn1 [WX023]		
	30.7	349	Cc1cc(-c2nc(C(=O)Nc3cn4cc(CCC(C)(C)O)nc4cc3-c3ccc(F)cc3)co2)ccn1 [WX026]		
11			Cc1cc(-c2nc(C(=O)Nc3cn4cc(CCC(C)(C)O)nc4cc3-c3ccccc3C(N)=O)co2)ccn1 [WX027]		
	24.2	289	Cc1cc(-c2nc(C(=O)Nc3cn4cc(CCC(C)(C)O)nc4cc3-c3c(F)cccc3F)co2)ccn1 [WX029]		
		209	Cc1cc(-c2nc(C(=O)Nc3cn4cc(CCC(C)(C)O)nc4cc3-c3ccc(Cl)cc3)co2)ccn1 [WX030]		
	39.6	96	Cc1cc(-c2nc(C(=O)Nc3cn4cc(CCC(C)(C)O)nc4cc3-c3cccc(Cl)c3)co2)ccn1 [WX031]		
	26.5	386	Cc1cc(-c2nc(C(=O)Nc3cn4cc(CCC(C)(C)O)nc4cc3-c3cccs3)co2)ccn1 [WX032]		
1.6	20.2		[2H]c1c([2H])c([2H])c(-c2cc3nc(CCC(C)(C)O)cn3cc2NC(=O)c2coc(-c3ccnc(C)c3)n2)c([2H])c1[2H] [WX033]		
1	29		Cc1cc(-c2nc(C(=O)Nc3cn4cc(CCC(=O)O)nc4cc3-c3ccccc3)co2)ccn1 [WX039]		
	3.8		Cc1cc(-c2nc(C(=O)Nc3cn4cc(CCS(C)(=O)=O)nc4cc3N3CCCCC3)co2)ccn1 [WX042]		
1.9			CC(C)(O)CCc1cn2cc(NC(=O)c3coc(-c4ccnc(C(N)=O)c4)n3)c(N3CCCCC3)cc2n1 [WX044]		
2.5	43.1		Cc1cc(-c2nc(C(=O)Nc3cn4cc(CCC(C)(C)O)nc4cc3N3CCC(C(=O)O)CC3)co2)ccn1 [WX046]		

From patent US12459940B2, “Oxazole compound as multi-targeted inhibitor of IRAK4 and BTK” (SHANGHAI FOSUN PHARMACEUTICAL INDUSTRIAL DEVELOPMENT CO., …, priority 2019, dated 2025)
